According to US20250312469A1 (CANGET BIOTEKPHARMA, priority 2024, published 2025):
Where “and” joins values, the source holds several entries; their conditions need not be identical. Identical values can stand only once.

Tests used:
ABCG2/BCRP = biological target: T1, ABCG2/BCRP (Homo sapiens, UniProt Q9UNQ0); assay: ABCG2/BCRP inhibition (BCRP-MDCK, cladribine)
T1 sequence (Q9UNQ0 1-655): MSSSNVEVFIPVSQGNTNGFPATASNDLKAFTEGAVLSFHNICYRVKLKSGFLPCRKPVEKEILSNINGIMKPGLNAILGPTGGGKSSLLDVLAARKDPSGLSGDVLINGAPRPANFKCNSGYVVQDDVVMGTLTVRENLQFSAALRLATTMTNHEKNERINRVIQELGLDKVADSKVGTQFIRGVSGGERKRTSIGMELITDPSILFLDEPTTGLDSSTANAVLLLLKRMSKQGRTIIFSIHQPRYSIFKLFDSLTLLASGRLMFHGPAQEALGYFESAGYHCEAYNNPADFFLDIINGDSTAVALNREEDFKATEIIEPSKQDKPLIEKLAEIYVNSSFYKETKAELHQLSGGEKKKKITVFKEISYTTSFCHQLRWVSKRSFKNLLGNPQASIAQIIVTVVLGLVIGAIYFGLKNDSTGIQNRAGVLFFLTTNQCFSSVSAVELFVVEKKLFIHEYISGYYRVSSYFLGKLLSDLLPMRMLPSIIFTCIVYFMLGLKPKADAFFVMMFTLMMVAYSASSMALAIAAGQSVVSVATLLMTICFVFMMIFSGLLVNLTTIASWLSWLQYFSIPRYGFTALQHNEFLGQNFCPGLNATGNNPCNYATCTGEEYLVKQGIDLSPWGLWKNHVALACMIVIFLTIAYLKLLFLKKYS
Experimental: After 30 minutes the buffer was removed, replaced with fresh dosing solution/assay buffer, and time was recorded as 0. […] Each determination was performed in duplicate. […] Analytical conditions are outlined in Appendix 1.

[1] = biological target: T2, bovine serum albumin (BSA) (Bos taurus, UniProt P02769); assay: 3H-FL118 binding, Nanosep 3K centrifugal device; details: negative control protein
T2 construct: purchased EMD (Billerica, MA)
Experimental: Then, 5-10 μg of the FLAGR M Purification Kit (Signa)-purified Flag-USP2a and Flag-UbE2T proteins in a volume of 20-50 μL, respectively, was transferred into the sample reservoir of a 1.5 mL Nanosep 3K Centrifugal Device. In parallel, a negative control Nanosep 3K Centrifugal Devices containing 10 μg bovine serum albumin (BSA) in 50 μL volume was also set up. Then, the 3 prepared Nanosep 3K Devices were centrifuged at 10,000 rpm for 10-15 min to eliminate the solution and retain the proteins in the sample reservoir. […] Lastly, all three of the sample reservoir devices were transferred into a scintillation vial containing enough scintillation solution to cover the entire sample reservoir devices for tritium (3H) counting on the LS 6500 Scintillation System (Backman Couler™).

WP2-uvrA = assay: Ames Bacterial Reverse Mutation Assay; details: for Background Lawn Code / Colony Counts Average / Colony Counts Replicate 1-3: WP2-uvrA
[2] = Rat toxicology/MTD, limited numbers, FL118-HPβCD complex powder suspension (Roswell Park); details: for MTD at 50 days: Sprague-Dawley, rat, in vivo, po, conservative MTD; for BASO / EOS / HCT / HGB / LYM / MCH / MCHC / MCV / MONO / MPV / NEUT / PDW / PLT / RBC / RDW-SD / RET / WBC / ALB / ALP / ALT / AMYL / BUN / CHOL / CREA / Ca / GLU / Na / PHOS / TBIL / TP: rats, oral; for ALB / ALP / ALT / AMYL / BUN / CHOL / CREA / Ca / GLU / Na / PHOS / TBIL / TP: serum

T2 sequence (P02769 25-607): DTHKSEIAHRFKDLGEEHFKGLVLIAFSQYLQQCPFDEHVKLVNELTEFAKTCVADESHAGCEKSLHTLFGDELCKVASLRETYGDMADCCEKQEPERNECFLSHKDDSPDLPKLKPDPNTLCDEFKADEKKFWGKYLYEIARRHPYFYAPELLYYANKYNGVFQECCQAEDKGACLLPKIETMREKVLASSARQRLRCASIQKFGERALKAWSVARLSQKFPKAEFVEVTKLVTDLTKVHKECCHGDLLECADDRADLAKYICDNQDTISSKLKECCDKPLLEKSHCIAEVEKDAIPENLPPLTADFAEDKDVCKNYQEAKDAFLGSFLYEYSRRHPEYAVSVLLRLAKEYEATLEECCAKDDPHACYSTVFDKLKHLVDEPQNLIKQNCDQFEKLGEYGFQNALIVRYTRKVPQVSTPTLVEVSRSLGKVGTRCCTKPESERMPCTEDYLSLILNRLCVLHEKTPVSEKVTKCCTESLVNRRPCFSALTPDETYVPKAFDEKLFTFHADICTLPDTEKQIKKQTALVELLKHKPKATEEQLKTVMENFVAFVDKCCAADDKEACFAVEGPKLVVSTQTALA

For CCC1(O)C(=O)OCc2c1cc1n(c2=O)Cc2cc3cc4c(cc3nc2-1)OCO4 (stereo not shown) [FL118], the “inhibition of BCRP transport of cladribine” value (ABCG2/BCRP; 1.0 μM FL118) was “does not inhibit cladribine acting as a BCRP substrate”, the “BCRP Inhibition Potential Classification” value (ABCG2/BCRP; BCRP-MDCK, cladribine as substrate, 1.0 μM FL118 or 0.5 μM Ko143) was “Negative (without inhibitor, and reduced by <50 with inhibitor: Negative)” and the “3H CPM counts in retained parts” value [1] was 4,230 ± 370 CPM. The whole blood partitioning (Blood partitioning; 1 μM) was “favorable whole blood partitioning results”, the “RBC to Plasma Partitioning (KRBC/P)” value (Blood partitioning; human whole blood) was 1.04 and the bacterial strain mutation (WP2-uvrA) was “does not induce”. The “mean revertant colonies over negative control” value (WP2-uvrA; +/− S9) was “less than 2 fold”, the “Background Lawn Code” value (WP2-uvrA; 0.010 μM +S9) was 1 and the “Colony Counts Average” value (WP2-uvrA; 0.010 μM +S9) was 40. For the same molecule, the “Colony Counts Replicate 1-3” value (WP2-uvrA; 0.010 μM +S9) was 38 and 47 and 34, the “Background Lawn Code” value (WP2-uvrA; 0.010 μM −S9) was 1 and the “Colony Counts Average” value (WP2-uvrA; 0.010 μM −S9) was 29. The “Colony Counts Replicate 1-3” value (WP2-uvrA; 0.010 μM −S9) was 35 and 22 and 31, the “Background Lawn Code” value (WP2-uvrA; 0.10 μM +S9) was 1 and the “Colony Counts Average” value (WP2-uvrA; 0.10 μM +S9) was 47. The “Colony Counts Replicate 1-3” value (WP2-uvrA; 0.10 μM +S9) was 48 and 38 and 54, the “Background Lawn Code” value (WP2-uvrA; 0.10 μM −S9) was 1 and the “Colony Counts Average” value (WP2-uvrA; 0.10 μM −S9) was 30. The “Colony Counts Replicate 1-3” value (WP2-uvrA; 0.10 μM −S9) was 27 (2×) and 36, the “Background Lawn Code” value (WP2-uvrA; 1.0 μM +S9) was 1 and the “Colony Counts Average” value (WP2-uvrA; 1.0 μM +S9) was 39. For the same molecule, the “Colony Counts Replicate 1-3” value (WP2-uvrA; 1.0 μM +S9) was 35 and 38 and 43, the “Background Lawn Code” value (WP2-uvrA; 1.0 μM −S9) was 1 and the “Colony Counts Average” value (WP2-uvrA; 1.0 μM −S9) was 27. The “Colony Counts Replicate 1-3” value (WP2-uvrA; 1.0 μM −S9) was 27 and 31 and 24, the gross pathology ([2]; all doses) was “no obvious FL118-related gross pathology macroscopic findings” and the “clinical signs, female rats” value ([2]; all treatment groups) was “no serious adverse clinical signs”. The “weight loss, female rats” value ([2]; all treatment groups) was at most 10%, the MTD at 50 days ([2]; female, female rats) was at most 4.77 mg/kg and the MTD at 50 days ([2]; male, male rats) was at least 2.44 mg/kg. The BASO ([2]; 1.56 mg/kg) was 0.01-0.02 K/μL, the EOS ([2]; 1.56 mg/kg) was 0.04-0.07 K/μL and the HCT ([2]; 1.56 mg/kg) was 44.5-50.5%. The HGB ([2]; 1.56 mg/kg) was 14.2 to 16 g/dL, the LYM ([2]; 1.56 mg/kg) was 5.56-8.7 K/μL and the MCH ([2]; 1.56 mg/kg) was 17.8 to 18.6 pg. For the same molecule, the MCHC ([2]; 1.56 mg/kg) was 31.2 to 32.1 g/dL, the MCV ([2]; 1.56 mg/kg) was 56.1 to 58.6 fL and the MONO ([2]; 1.56 mg/kg) was 0.19-0.58 K/μL. For the same molecule, the MPV ([2]; 1.56 mg/kg) was 7.9 to 8.1 fL, the NEUT ([2]; 1.56 mg/kg) was 0.38-1.37 K/μL and the PDW ([2]; 1.56 mg/kg) was 9.2 to 10 fL. The PLT ([2]; 1.56 mg/kg) was 864-1070 K/μL, the RBC ([2]; 1.56 mg/kg) was 7.67-8.73 M/μL and the RDW-SD ([2]; 1.56 mg/kg) was 30 to 33.7 fL. The RET ([2]; 1.56 mg/kg) was 401-524 K/μL, the WBC ([2]; 1.56 mg/kg) was 6.5-10.7 K/μL and the BASO ([2]; 3.05 mg/kg) was 0.01-0.04 K/μL. For the same molecule, the EOS ([2]; 3.05 mg/kg) was 0.02-0.1 K/μL, the HCT ([2]; 3.05 mg/kg) was 34.6-46.5% and the HGB ([2]; 3.05 mg/kg) was 11.8 to 14.8 g/dL. For the same molecule, the LYM ([2]; 3.05 mg/kg) was 4.83-6.03 K/μL, the MCH ([2]; 3.05 mg/kg) was 18.4 to 19.2 pg and the MCHC ([2]; 3.05 mg/kg) was 31.8 to 34.1 g/dL. The MCV ([2]; 3.05 mg/kg) was 55.6 to 57.8 fL, the MONO ([2]; 3.05 mg/kg) was 0.09-0.43 K/μL and the MPV ([2]; 3.05 mg/kg) was 7.6 to 7.8 fL. The NEUT ([2]; 3.05 mg/kg) was 0.92-1.42 K/μL, the PDW ([2]; 3.05 mg/kg) was 9.4 to 9.9 fL and the PLT ([2]; 3.05 mg/kg) was 665-1259 K/μL. The RBC ([2]; 3.05 mg/kg) was 6.15-8.04 M/μL, the RDW-SD ([2]; 3.05 mg/kg) was 29.3 to 35.3 fL and the RET ([2]; 3.05 mg/kg) was 208-625 K/μL. The WBC ([2]; 3.05 mg/kg) was 6.0-7.9 K/μL, the ALB ([2]; 1.56 mg/kg) was 3.4 to 4.4 g/dL and the ALP ([2]; 1.56 mg/kg) was 111-239 U/L. For the same molecule, the ALT ([2]; 1.56 mg/kg) was 63-134 U/L, the AMYL ([2]; 1.56 mg/kg) was 1547-2358. U/L and the BUN ([2]; 1.56 mg/kg) was 15 to 20 mg/dL. The CHOL ([2]; 1.56 mg/kg) was 89 to 111 mg/dL, the CREA ([2]; 1.56 mg/kg) was 0.1 to 0.5 mg/dL and the Ca ([2]; 1.56 mg/kg) was 11.2 to 11.6 mg/dL. For the same molecule, the GLU ([2]; 1.56 mg/kg) was 206 to 296 mg/dL, the Na ([2]; 1.56 mg/kg) was 143 to 154 mmol/L and the PHOS ([2]; 1.56 mg/kg) was 10.8 to 13.2 mg/dL. The TBIL ([2]; 1.56 mg/kg) was 0.2 to 0.8 mg/dL, the TP ([2]; 1.56 mg/kg) was 6.2 to 6.7 g/dL and the ALB ([2]; 3.05 mg/kg) was 3.6 to 4.3 g/dL. For the same molecule, the ALP ([2]; 3.05 mg/kg) was 37-168 U/L, the ALT ([2]; 3.05 mg/kg) was 85-111 U/L and the AMYL ([2]; 3.05 mg/kg) was 1614-2162. U/L. For the same molecule, the BUN ([2]; 3.05 mg/kg) was 15 to 21 mg/dL, the CHOL ([2]; 3.05 mg/kg) was 38 to 87 mg/dL and the CREA ([2]; 3.05 mg/kg) was 0.1 to 0.5 mg/dL. It also gave a Ca ([2]; 3.05 mg/kg) of 11.3 to 11.9 mg/dL, a GLU ([2]; 3.05 mg/kg) of 282 to 438 mg/dL and a Na ([2]; 3.05 mg/kg) of 147 to 154 mmol/L. It also gave a PHOS ([2]; 3.05 mg/kg) of 4.1 to 10.5 mg/dL, a TBIL ([2]; 3.05 mg/kg) of 0.3 to 0.7 mg/dL and a TP ([2]; 3.05 mg/kg) of 5.4 to 6.3 g/dL. The mortality ([2]; weekly oral gavage, 7 doses) was “No mortality occurred”.
